Results as given in patent US9365502B2, “Neuroactive substituted cyclopenta[b]phenanthrenes as modulators for GABA type-A receptors” (priority 2013, dated 2016).
Where two headings read alike, the source gives them in different places.

Legend:
Tadpole = Tadpole loss of righting (LRR) and loss of swimming (LSR) reflexes; format: in vivo; conditions: ± SEM
Protocol: Table 3 discloses the anesthetic effects of the compounds of the present disclosure. In particular, the anesthetic effect of the compounds of the present disclosure on Loss of Righting Reflex (LRR) and Loss of Swimming Reflex (LSR).
Methods used are known in the art (see Jiang, X., et al.). Error limits are calculated as standard error of the mean (N=10 or more animals at each of five or more different concentrations).

[1] = target: rat α1β2γ2L type GABAA receptors expressed in Xenopus laevis oocytes (Rattus norvegicus (Rat), UniProt P62813+P63138, INS375LLRMFSFK); experiment: Potentiation of GABA-mediated chloride currents, oocyte electrophysiology; format: cell-based; conditions: ± SEM; for Oocyte electrophysiology 0.1 μM (ratio of currents in presence/absence of compound): 0.1 μM compound; for Oocyte electrophysiology 0.1 μM (ratio of currents in presence/absence of compound) / Oocyte electrophysiology 1.0 μM (ratio of currents in presence/absence of compound) / Oocyte electrophysiology 10 μM (ratio of currents in presence/absence of compound): 2 μM GABA, N>=4; for Oocyte electrophysiology 1.0 μM (ratio of currents in presence/absence of compound): 1.0 μM compound; for Oocyte electrophysiology (gating) 10 μM (ratio of compound only current/2 μM GABA current): 10 μM compound in the absence of GABA; for Oocyte electrophysiology 10 μM (ratio of currents in presence/absence of compound): 10 μM compound
Protocol: The compounds of the present disclosure were evaluated for the ability to potentiate chloride currents mediated by 2 μM GABA at rat α1β2γ2L type GABAA receptors expressed in Xenopus laevis oocytes and the results are shown in Table 2.
The GABA concentration used for the control response was 2 μM. Each compound was evaluated on at least four different oocytes at the concentrations indicated, and the results reported are the ratio of currents measured in the presence/absence of added compound. Gating represents direct current gated by 10 μM compound in the absence of GABA, and this current is reported as the ratio of compound only current/2 μM GABA current. Error limits are calculated as standard error of the mean (N≧4). Methods used are known in the art (see Jiang, X., et al.).

[2] = target: picrotoxin binding site on GABAA receptors; experiment: [35S]-TBPS displacement (inhibition of [35S]-TBPS binding); conditions: mean ± SEM, duplicate experiments performed in triplicate
Protocol: The IC50 values for non-competitive displacers of [^35S]-TBPS from the picrotoxin binding site on GABAA receptors are reported in Table 1.
Results presented are from duplicate experiments performed in triplicate. Error limits are calculated as standard error of the mean. Methods used are known in the art (see Jiang, X., et al., Neurosteroid analogues. 9. Conformationally constrained pregnanes: structure-activity studies of 13,24-cyclo-18,21-dinorcholane analogues of the GABA modulatory and anesthetic steroids (3α,5α)- and […]. J. Med. Chem., 46: 5334-48 (2003)—the contents of which are hereby incorporated by reference in their entirety).

[3] = loss of righting reflex, read-out: Tadpole LRR EC50
[4] = loss of swimming reflex, read-out: Tadpole LSR EC50

Compound | melting point | EC50 (Tadpole; [3]) | EC50 (Tadpole; [4]) | Oocyte electrophysiology 0.1 μM (ratio of currents in presence/absence of compound) [1] | Oocyte electrophysiology 1.0 μM (ratio of currents in presence/absence of compound) [1] | Oocyte electrophysiology (gating) 10 μM (ratio of compound only current/2 μM GABA current) [1] | Oocyte electrophysiology 10 μM (ratio of currents in presence/absence of compound) [1] | IC50 [2]
CC(=O)[C@H]1CC[C@H]2C[C@@H]3[C@H](CC[C@@H]4C[C@@H](O)CC[C@H]43)C[C@@]21C | 131 to 133 °C |  |  |  |  |  |  | 
C[C@@]12C[C@@H]3CC[C@@H]4C[C@H](O)CC[C@@H]4[C@H]3C[C@H]1CC[C@]21CO1 | 163 to 165 °C |  |  |  |  |  |  | 
C[C@]12C[C@H]3CC[C@@H]4C[C@@H](O)CC[C@H]4[C@@H]3C[C@@H]1CC[C@@H]2[N+](=O)[O-] | 157 to 159 °C |  |  |  |  |  |  | 
C[C@@]12CC3CCC4C[C@H](O)CCC4C3CC1CC[C@H]2C#N (some centres unmarked) [MQ-49] |  | 2400 ± 760 nM | 5480 ± 120 nM | 0.92 ± 0.01 | 1.02 ± 0.01 | 0.02 ± 0.01 | 1.86 ± 0.06 | 1580 nM
CC(=O)[C@@H]1CC[C@@H]2C[C@H]3[C@@H](CC[C@H]4C[C@H](O)CC[C@@H]43)C[C@]21C [MQ-50] |  | 2010 ± 1300 nM | 10000 nM | 1.02 ± 0.01 | 1.18 ± 0.02 | 0.0 ± 0.0 | 1.98 ± 0.07 | 1060 nM
C[C@@]12C[C@@H]3CC[C@@H]4C[C@H](O)CC[C@@H]4[C@H]3C[C@H]1CCC2=O [MQ-51] |  | > 10000 nM | > 10000 nM | 0.97 ± 0.03 | 1.02 ± 0.02 | 0.08 ± 0.08 | 1.59 ± 0.11 | 5860 nM
C[C@@]12CC3CCC4C[C@H](O)CCC4C3CC1CC[C@]21CO1 (some centres unmarked) [MQ-54] |  | 3340 ± 110 nM | 5480 ± 200 nM | 1.01 ± 0.05 | 4.03 ± 0.31 | 0.05 ± 0.01 | 11.41 ± 1.18 | 1990 nM
C[C@@]12CC[C@H](O)C[C@@H]1CC[C@@H]1C[C@]3(C)C(=O)CCC3C[C@H]12 (some centres unmarked) [MQ-83] |  | 2190 ± 440 nM | 5480 ± 120 nM | 0.85 ± 0.07 | 1.03 ± 0.06 | 0.1 ± 0.2 | 6.35 ± 0.81 | 748 ± 103 nM
C[C@@]12CC[C@@H](O)C[C@@H]1CC[C@H]1C[C@@]3(C)[C@H](CC[C@@]34CO4)C[C@@H]12 [MQ-85] |  | 350 ± 20 nM | 550 ± 10 nM | 2.08 ± 0.23 | 9.59 ± 1.77 | 0.10 ± 0.02 | 17.18 ± 3.31 | 29 ± 7 nM
C[C@@]12CC[C@H](O)C[C@H]1CC[C@@H]1C[C@]3(C)C(C#N)=CCC3CC12 (some centres unmarked) [MQ-86] |  | 380 ± 50 nM | 550 ± 10 nM | 2.25 ± 0.11 | 10.95 ± 1.05 | 0.16 ± 0.03 | 19.64 ± 2.06 | 43 ± 3 nM
C[C@@]12CC[C@H](O)C[C@H]1CC[C@@H]1C[C@@]3(C)C(CC[C@@H]3C#N)CC12 (some centres unmarked) [MQ-87] |  | 100 ± 10 nM | 330 nM | 1.93 ± 0.14 | 10.95 ± 0.55 | 0.04 ± 0.01 | 16.10 ± 0.87 | 14 ± 2 nM
